From PMC12534982 (Journal of Experimental & Clinical Cancer Research : CR, 2025)

What was measured:
colorectal cancer cells [1] = assay: Neutral comet assay; assay type: cell-based, human; conditions: 25 µM
Procedure: The assay was conducted as described in [20]. Cancer cells (2–3 × 10^5) were cultured in 6-well plates and treated with DMSO or NK-A 17E-233I (25 µM) for 1 or 24 h. After treatment, the cells were harvested and suspended in Comet Low Melting Agarose (LMA; Trevigen). Once the LMA solidified, the glass slides (CometSlide) were placed in a cell lysis buffer at 4 °C overnight. Electrophoresis was performed using a comet assay electrophoresis system (21 V for 40 min). The slides were subsequently washed and stained with SYBR® Gold dye (Invitrogen) in the dark for 30 min. DNA migration was observed using a fluorescence microscope (AF6000, Leica) equipped with a HCX PL APO 63x (NA = 1.4) oil objective. Comet tail lengths were measured with ImageJ/FIJI, analyzing over 100 cells per each condition.

colorectal cancer cells [2] = assay: Clonogenic assay; assay type: cell-based, human
Procedure: Cancer cells (4 × 10^3) were cultured in 6-well plates in triplicate and treated with DMSO or NK-A 17E-233I (25 µM) for two weeks. Colonies were subsequently stained with a solution containing 0.5% crystal violet (#B21932.14; ThermoScientific) and 20% ethanol, followed by multiple washes with water. Plates were allowed to air dry overnight and were subsequently scanned using an Epson Perfection V850 Pro scanner (Kamera Express, Spain). The area of the wells occupied by cells was quantified utilizing the ImageJ plugin ColonyArea.

colorectal cancer cells [3] = assay: Intracellular ATP levels (CellTiter-Glo); assay type: cell-based, human; conditions: 25 µM
Procedure: Luminescence readings were recorded with a Victor Multilabel Plate Reader (PerkinElmer Life Sciences, Massachusetts, USA).

[4] = biological target: T1, recombinant human DHODH (full-length wild-type) (Homo sapiens, UniProt Q02127); assay: In vitro DHODH enzyme activity assay; assay type: biochemical; conditions: for IC50: 0.1 mM QD, mean ± SD (n = 4–6); for Ki: assuming pure competitive inhibition
T1 construct: The generation of recombinant enzymes (full-length wild-type); made in house
T1 sequence (Q02127 whole entry): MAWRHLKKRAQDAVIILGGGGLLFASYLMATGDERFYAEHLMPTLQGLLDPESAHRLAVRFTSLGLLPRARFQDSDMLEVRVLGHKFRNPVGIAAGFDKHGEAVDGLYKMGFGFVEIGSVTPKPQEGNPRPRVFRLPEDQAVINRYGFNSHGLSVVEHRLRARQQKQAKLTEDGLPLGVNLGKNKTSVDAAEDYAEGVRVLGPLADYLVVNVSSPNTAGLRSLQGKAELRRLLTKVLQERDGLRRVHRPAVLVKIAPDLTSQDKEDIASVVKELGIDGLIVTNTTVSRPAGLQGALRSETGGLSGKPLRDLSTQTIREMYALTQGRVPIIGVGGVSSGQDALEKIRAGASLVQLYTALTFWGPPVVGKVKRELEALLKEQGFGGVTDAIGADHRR
Procedure: (§1) The assays to determine the inhibition constants of inhibitors of the recombinant DHODH enzymes are described in [28, 29].
(§2) The IC50 values were determined by fitting the equation V = V max/(1 + (I/IC50)^h) to the assay data using SigmaPlot14 (Systat Software Inc.). In this equation, V represents the measured enzyme activity, while V max indicates the maximum enzyme activity reached. I denotes the inhibitor concentration, and h describes the slope of the fitted curve.

Δ29 DHODH (N-truncated) = biological target: T2, Δ29 DHODH (N-truncated) (Homo sapiens, UniProt Q02127); assay: In vitro DHODH enzyme activity assay; assay type: biochemical; conditions: 1 mM DHO
T2 construct: N-terminal truncated form of human DHODH (Δ29), where the N-terminal transmembrane domain was removed; made in house
T2 sequence (Q02127 29-395, stated change not applied): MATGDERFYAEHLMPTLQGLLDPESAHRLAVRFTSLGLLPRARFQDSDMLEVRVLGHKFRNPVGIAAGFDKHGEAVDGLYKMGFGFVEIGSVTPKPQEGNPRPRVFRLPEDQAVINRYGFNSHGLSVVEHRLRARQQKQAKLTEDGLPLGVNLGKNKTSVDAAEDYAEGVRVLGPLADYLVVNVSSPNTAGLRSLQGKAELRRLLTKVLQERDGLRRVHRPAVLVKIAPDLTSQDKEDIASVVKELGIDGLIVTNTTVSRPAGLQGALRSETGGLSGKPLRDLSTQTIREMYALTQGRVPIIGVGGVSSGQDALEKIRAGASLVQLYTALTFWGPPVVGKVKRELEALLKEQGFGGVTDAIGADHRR
Procedure: as §1, §2

DHODH R136C = biological target: T3, DHODH R136C (Homo sapiens, UniProt Q02127, R135C); assay: In vitro DHODH enzyme activity assay; assay type: biochemical; conditions: 1 mM DHO
T3 construct: made in house
T3 sequence (Q02127 whole entry R135C): as the sequence (Q02127 whole entry) above, with R135C counted along it
Procedure: as §1, §2

SW620 cells [5] = assay: Intracellular nucleotides, orotate and DHO by HPLC–MS/MS; assay type: cell-based, human; conditions: 25 µM, 24 h
Procedure: Cancer cells (2.2 × 10^6) were cultured in 100-mm Petri dishes and treated with DMSO or NK-A 17E-233I (25 µM) for 24 h. Nucleotides and related compounds were extracted from cell pellets by treatment with 0.5 M trichloroacetic acid (TCA) followed by neutralization and solvent evaporation as detailed in [30]. Dry extracts were stored at -70°C until further analysis. Protein pellets sedimented after TCA precipitation were re-dissolved in 1 mL of 100 mM NaOH, 5% SDS by incubation at 95 °C for 5 min, followed by complete re-dissolution through several syringe strokes with a 23G needle. The concentration of the re-dissolved protein was quantified using the Pierce™ BCA Protein Assay Kit (Thermo Fisher Scientific), with the amount of the metabolites referenced to protein content.
On the day of metabolite analysis, the dry extracts were re-dissolved in 150 µL of water. Nucleotides, DHO and orotate concentrations were determined using HPLC–MS/MS using Acquity UPLC-Xevo™ TQ Mass Spectrometer (Waters, MA, USA), following the methodology described in [30]. The m/z transitions for DHO and orotate were 156.87 > 113.09 and 154.90 > 111.00, respectively. The identification of all compounds was based on retention time and specific ion transitions. The calibration curves generated with aqueous standards were processed concurrently, and the concentrations were derived from peak area interpolation using TargetLynx software (Waters, MA, USA).

SW620 cells [6] = assay: Lactate assay; assay type: cell-based, human; conditions: 25 µM, 24 h; in comparison to Brequinar (100 µM)
Procedure: This assessment was conducted utilizing a Lactate Assay Kit-WST (#L256-20; Dojindo Laboratories), in accordance with the manufacturer's protocol. Optical density measurements were recorded at 450 nm using a Victor Multilabel Plate Reader.

[7] = median [Minimum – Maximum], five experiments
[8] = median [Minimum – Maximum], four experiments

With `COc1cc(C)c(Oc2cc(C)cc(O)c2O)c(O)c1` [NK-A 17E-233I] the “comet tails (DNA double-strand breaks)” value (colorectal cancer cells [1]) was “longer comet tails”, the “ability to form colonies” value (colorectal cancer cells [2]; 25 µM, two weeks) was “significantly diminished” and the “combination with the ATR inhibitor VE-821” value (colorectal cancer cells [2]; LS174T: Tx 4 µM, VE-821 0.5 µM, 14 days, HCT116) was “synergistic activity”. The “ATP production / proliferation with non-physiological uridine” value (colorectal cancer cells [3]; 200 µM uridine, various time points) was “did not impact the production of ATP or cancer cell proliferation”, the “levels of ATP” value (colorectal cancer cells [3]; up to 24 h) was “reduced” and the “mode of inhibition with respect to DHO” value [4] was “competitive inhibitor”. For the same compound, the IC50 ([4]; 0.1 mM DHO) was 28.9 ± 14.5 µM, the IC50 ([4]; 1 mM DHO) was 98.3 ± 42.6 µM and the “fold increase in the IC50 value with increasing concentrations of DHO” value ([4]; 1 mM vs 0.1 mM DHO) was 3.4 fold. It also gave a Ki ([4]; derived from the IC50 at 0.1 mM DHO) of 3.9 µM, a Ki ([4]; derived from the IC50 at 1 mM DHO) of 1.5 µM and an IC50 (Δ29 DHODH (N-truncated); mean ± SD (n = 3)) of 99.1 ± 47.8 µM. For the same compound, the “average of the fitted slopes” value (Δ29 DHODH (N-truncated); ± SD) was 1 ± 0.8, the IC50 (DHODH R136C; mean ± SD (n = 3)) was 48.6 ± 30.8 µM and the “average of the fitted slopes” value (DHODH R136C; ± SD) was 0.6 ± 0.2. The “levels of purine nucleotides” value (SW620 cells [5]) was “remained unchanged”, the ADP amount (SW620 cells [5]; [7]) was 7,917 [5,048–9,389] pmoles/mg protein and the “AMP + ADP + ATP amount” value (SW620 cells [5]; [7]) was 26,257 [24,352 – 27,848] pmoles/mg protein. For the same compound, the AMP amount (SW620 cells [5]; [7]) was 961 [405–2,739] pmoles/mg protein, the ATP amount (SW620 cells [5]; [7]) was 15,907 [14,173–21,694] pmoles/mg protein and the CDP amount (SW620 cells [5]; [7]) was 351 [143–504] pmoles/mg protein. For the same compound, the “CMP + CDP + CTP amount” value (SW620 cells [5]; [7]) was 6,327 [6,028 – 10,285] pmoles/mg protein, the CMP amount (SW620 cells [5]; [7]) was 263 [220–707] pmoles/mg protein and the CTP amount (SW620 cells [5]; [7]) was 5,801 [5,142–9,519] pmoles/mg protein. For the same compound, the GDP amount (SW620 cells [5]; [7]) was 1,339 [1,008–1,566] pmoles/mg protein, the “GMP + GDP + GTP amount” value (SW620 cells [5]; [7]) was 5,228 [4,902 – 7,797] pmoles/mg protein and the GTP amount (SW620 cells [5]; [7]) was 3,565 [3,407–6,418] pmoles/mg protein. For the same compound, the UDP amount (SW620 cells [5]; [7]) was 927 [867–1,161] pmoles/mg protein, the UMP amount (SW620 cells [5]; [7]) was 335 [81–424] pmoles/mg protein and the UTP amount (SW620 cells [5]; [7]) was 4,013 [3,397–6,651] pmoles/mg protein. For the same compound, the GMP amount (SW620 cells [5]; median [Minimum – Maximum], five experiments, undetectable treated as zero) was 156 [0–268] pmoles/mg protein, the DHO amount (SW620 cells [5]; [8]) was 26.5 [18.3–228.5] pmoles/mg protein and the Orotate amount (SW620 cells [5]; [8]) was 70.5 [61.7–137.1] pmoles/mg protein. For the same compound, the concentration of lactate (SW620 cells [6]) was “significantly reduced”.
